Assay results as given in ChEMBL document CHEMBL3085700 (J Med Chem, 2013).
Activity calls are given as the source filed them. The rule behind the calls is not given here.

What was measured:
[1] = molecular target: T1, Fatty-acid amide hydrolase 1 (Homo sapiens) (UniProt O00519); experiment: Noncompetitive inhibition of human recombinant FAAH overexpressed in African green monkey COS7 cells using anandamide as substrate assessed as decrease in Vmax of substrate hydrolysis preincubated for 10 mins before substrate addition measured after 10 mins by HPLC analysis; settings: COS-7
T1 sequence (whole entry): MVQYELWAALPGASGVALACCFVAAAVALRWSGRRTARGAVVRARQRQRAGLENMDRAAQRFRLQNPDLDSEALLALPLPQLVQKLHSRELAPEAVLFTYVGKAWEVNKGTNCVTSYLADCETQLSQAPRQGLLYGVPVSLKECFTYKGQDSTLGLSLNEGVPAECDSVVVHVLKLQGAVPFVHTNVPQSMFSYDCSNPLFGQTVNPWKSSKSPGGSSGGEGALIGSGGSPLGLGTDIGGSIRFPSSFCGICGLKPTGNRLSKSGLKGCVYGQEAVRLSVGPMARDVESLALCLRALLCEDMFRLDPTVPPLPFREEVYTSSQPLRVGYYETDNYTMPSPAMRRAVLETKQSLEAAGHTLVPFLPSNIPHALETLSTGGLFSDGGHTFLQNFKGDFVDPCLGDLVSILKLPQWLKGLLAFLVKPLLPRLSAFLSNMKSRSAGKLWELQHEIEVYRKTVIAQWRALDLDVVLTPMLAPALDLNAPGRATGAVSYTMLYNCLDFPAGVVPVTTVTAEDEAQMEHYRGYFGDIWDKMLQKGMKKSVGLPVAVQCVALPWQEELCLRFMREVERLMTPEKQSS

[2] = molecular target: T2, Monoglyceride lipase (Homo sapiens) (UniProt Q99685); experiment: Inhibition of human recombinant MAGL overexpressed in HEK cells using 2-AG as substrate at 10 uM preincubated for 10 mins before substrate addition measured after 10 mins by HPLC analysis relative to control; assay type: cell-based; settings: HEK293
T2 sequence (whole entry): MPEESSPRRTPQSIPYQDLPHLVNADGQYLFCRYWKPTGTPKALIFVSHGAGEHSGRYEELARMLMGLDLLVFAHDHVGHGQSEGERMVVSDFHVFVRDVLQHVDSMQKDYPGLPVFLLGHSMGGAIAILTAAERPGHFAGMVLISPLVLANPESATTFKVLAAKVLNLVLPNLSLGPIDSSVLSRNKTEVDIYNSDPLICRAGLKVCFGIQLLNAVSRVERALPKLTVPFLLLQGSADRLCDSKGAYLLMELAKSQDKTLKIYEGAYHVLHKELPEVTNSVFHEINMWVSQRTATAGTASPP

[3] = molecular target: Cannabinoid receptor 2 (Homo sapiens) (UniProt P34972); experiment: Agonist activity at human CB2 receptor expressed in CHO cell membranes up to 10 uM incubated for 10 mins prior to testing by [35S]GTPgammaS binding assay; assay type: functional
Cannabinoid receptor 2 (Homo sapiens), sequence (P34972 whole entry): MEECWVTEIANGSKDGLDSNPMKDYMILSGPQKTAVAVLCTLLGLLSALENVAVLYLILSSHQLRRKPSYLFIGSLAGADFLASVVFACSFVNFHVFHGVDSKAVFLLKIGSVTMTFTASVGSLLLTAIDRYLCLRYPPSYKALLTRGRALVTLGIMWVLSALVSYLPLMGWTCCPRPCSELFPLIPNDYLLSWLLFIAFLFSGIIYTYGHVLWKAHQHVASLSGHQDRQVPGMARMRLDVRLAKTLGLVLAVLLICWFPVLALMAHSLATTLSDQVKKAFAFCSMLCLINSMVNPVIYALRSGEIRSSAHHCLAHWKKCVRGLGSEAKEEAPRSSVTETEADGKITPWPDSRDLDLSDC

[4] = molecular target: T3, Fatty-acid amide hydrolase 1 (Homo sapiens, UniProt O00519); experiment: Inhibition of human recombinant FAAH overexpressed in African green monkey COS7 cells using [3H]-anandamide as substrate preincubated for 10 mins before substrate addition measured after 10 mins by liquid scintillation counting analysis; assay type: cell-based, COS-7
T3 sequence (O00519 whole entry): T1 sequence (whole entry)

[5] = molecular target: T4, Lysophosphatidylserine lipase ABHD12 (Homo sapiens) (UniProt Q8N2K0); experiment: Inhibition of human ABHD12 overexpressed in HEK293 cells assessed as 2-AG hydrolysis at 1 uM by fluorescent glycerol assay; assay type: cell-based
T4 sequence (whole entry): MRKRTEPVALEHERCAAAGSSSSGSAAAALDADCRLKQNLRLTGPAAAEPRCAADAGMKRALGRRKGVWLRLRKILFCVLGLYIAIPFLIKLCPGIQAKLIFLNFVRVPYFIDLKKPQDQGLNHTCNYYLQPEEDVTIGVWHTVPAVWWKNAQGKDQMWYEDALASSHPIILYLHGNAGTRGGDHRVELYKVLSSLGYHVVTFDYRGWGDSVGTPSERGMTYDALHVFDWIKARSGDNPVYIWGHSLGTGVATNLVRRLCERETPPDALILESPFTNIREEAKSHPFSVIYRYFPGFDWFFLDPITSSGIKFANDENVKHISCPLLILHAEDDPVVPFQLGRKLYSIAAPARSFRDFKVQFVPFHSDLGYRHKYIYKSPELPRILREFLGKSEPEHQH

[6] = molecular target: T5, Fatty-acid amide hydrolase 1 (Mus musculus) (UniProt O08914); experiment: Inhibition of TAMRA-FP-labeled FAAH in mouse brain membrane at 1 uM after 1 hr by fluorescent gel scanning assay; assay type: cell membranes
T5 sequence (whole entry): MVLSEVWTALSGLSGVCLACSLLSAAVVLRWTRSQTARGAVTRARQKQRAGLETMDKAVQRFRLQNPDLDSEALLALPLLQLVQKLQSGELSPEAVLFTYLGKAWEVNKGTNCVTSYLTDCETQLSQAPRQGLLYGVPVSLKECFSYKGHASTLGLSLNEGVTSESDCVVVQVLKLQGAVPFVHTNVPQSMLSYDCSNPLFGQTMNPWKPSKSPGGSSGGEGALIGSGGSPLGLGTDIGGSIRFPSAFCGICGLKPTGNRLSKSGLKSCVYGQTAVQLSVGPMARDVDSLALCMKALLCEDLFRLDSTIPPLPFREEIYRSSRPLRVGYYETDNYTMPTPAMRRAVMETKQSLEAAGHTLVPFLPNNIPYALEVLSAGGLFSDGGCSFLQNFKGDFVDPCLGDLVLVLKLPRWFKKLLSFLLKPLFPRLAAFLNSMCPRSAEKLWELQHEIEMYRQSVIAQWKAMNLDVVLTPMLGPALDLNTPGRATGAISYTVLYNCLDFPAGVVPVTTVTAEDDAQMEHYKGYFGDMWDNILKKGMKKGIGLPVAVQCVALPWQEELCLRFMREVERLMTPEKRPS

[7] = species: Homo sapiens; experiment: Selectivity ratio for human recombinant FAAH over human recombinant MAGL
[8] = molecular target: T6, Lysophosphatidylserine lipase ABHD12 (Mus musculus) (UniProt Q99LR1); experiment: Inhibition of TAMRA-FP-labeled ABHD12 in mouse brain membrane at 10 uM after 1 hr by fluorescent gel scanning assay; assay type: cell membranes
T6 sequence (whole entry): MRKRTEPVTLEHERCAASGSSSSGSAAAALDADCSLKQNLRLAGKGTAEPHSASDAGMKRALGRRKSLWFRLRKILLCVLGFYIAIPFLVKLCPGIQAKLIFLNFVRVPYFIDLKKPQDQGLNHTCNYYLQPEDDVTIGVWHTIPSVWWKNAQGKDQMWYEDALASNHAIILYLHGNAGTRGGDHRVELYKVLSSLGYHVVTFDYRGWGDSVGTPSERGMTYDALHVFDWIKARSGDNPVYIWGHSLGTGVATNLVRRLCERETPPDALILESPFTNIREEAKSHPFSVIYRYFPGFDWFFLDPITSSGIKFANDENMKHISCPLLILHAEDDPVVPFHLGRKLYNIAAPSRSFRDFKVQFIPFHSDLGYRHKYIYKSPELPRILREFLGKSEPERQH

[9] = molecular target: Cannabinoid receptor 1 (Rattus norvegicus) (UniProt P20272); experiment: Agonist activity at CB1 receptor in rat cerebellar membranes up to 10 uM incubated for 10 mins prior to testing by [35S]GTPgammaS binding assay; assay type: functional, cell membranes; settings: Cerebellum, Membrane
Cannabinoid receptor 1 (Rattus norvegicus), sequence (P20272 whole entry): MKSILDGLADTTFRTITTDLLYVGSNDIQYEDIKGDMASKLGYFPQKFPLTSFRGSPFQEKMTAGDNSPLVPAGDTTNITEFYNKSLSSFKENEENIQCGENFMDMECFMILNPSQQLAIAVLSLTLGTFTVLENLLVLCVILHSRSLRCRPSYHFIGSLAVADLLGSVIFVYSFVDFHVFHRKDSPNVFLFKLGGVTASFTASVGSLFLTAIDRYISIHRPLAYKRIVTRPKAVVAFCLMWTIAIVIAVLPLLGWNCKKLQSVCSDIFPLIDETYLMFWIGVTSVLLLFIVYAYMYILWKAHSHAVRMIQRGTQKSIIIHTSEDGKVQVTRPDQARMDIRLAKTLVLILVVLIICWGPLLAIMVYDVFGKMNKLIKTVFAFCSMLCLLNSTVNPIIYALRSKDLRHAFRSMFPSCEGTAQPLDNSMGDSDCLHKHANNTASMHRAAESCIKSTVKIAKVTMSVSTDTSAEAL

With `COc1nn([C@@H](C)c2ccc(CC(C)C)cc2)c(=O)o1` the inhibition [1] was “Dose-dependent effect”, the inhibition [2] was 16% and the Activity [3] was “inactive”. For the same compound, the IC50 ([4]; read-out: IC50) was 11 nM, the IC50 ([4]; read-out: pIC50 (converted)) was 11.5 nM and the inhibition [5] was “inactive”. For the same compound, the inhibition [6] was “Active”, the Selectivity ratio [7] was > 900 and the inhibition [8] was “inactive”. The Activity [9] was “inactive”.
